Laboratory results taken from patent EP0908457B1, “3-(1,2-benzisothiazol- and isoxazol-5-Y1)-2,4(1H,3H)-pyrimidinedione or thione and 3-(1,2-benzisothiazol- and isoxazol-5-y1)-4(3H)-pyrimidinone or thione herbicidal agents” (BASF AKTIENGESELLSCHAFT, priority 1997, dated 1999).

How the values were obtained:
[1] = tested on: Echinochloa oryzoides (Ard.) Fritsch.; assay: Preemergence weed control under flooded paddy conditions, ECHORC (Watergrass (Calif.)); assay type: in vivo; conditions: flooded paddy, rated three to four weeks after treatment; on herbicidal effect rating, ECHORC: meaning of each grade not given here
[2] = tested on: Cyperus iria; assay: Preemergence weed control under flooded paddy conditions, CYPIR (Rice Flatsedge); assay type: in vivo; conditions: flooded paddy, rated three to four weeks after treatment; on herbicidal effect rating, CYPIR: meaning of each grade not given here
[3] = tested on: Cyperus serotinus, Rottb.; assay: Preemergence weed control under flooded paddy conditions, CYPSE (Flatsedge); assay type: in vivo; conditions: rated three to four weeks after treatment; on herbicidal effect rating, CYPSE: meaning of each grade not given here
[4] = tested on: Monochoria vaginalis, Presl.; assay: Preemergence weed control under flooded paddy conditions, MOOVA (Monochoria); assay type: in vivo; conditions: flooded paddy, rated three to four weeks after treatment; on herbicidal effect rating, MOOVA: meaning of each grade not given here
[5] = tested on: Sagittaria pygmaea, L.; assay: Preemergence weed control under flooded paddy conditions, SAGPY (Arrowhead (Pygmaea)); assay type: in vivo; conditions: flooded paddy, rated three to four weeks after treatment; on herbicidal effect rating, SAGPY: meaning of each grade not given here
[6] = tested on: Oryza sativa, (L.) Tebonnet; assay: Rice tolerance to post-transplant applications under flooded paddy conditions (Example 187), ORYSAT (Rice, Tebonnet); conditions: rated three to four weeks after treatment
[7] = Rate 0.0320 kg/ha, preemergence
[8] = Rate 0.0620 kg/ha, preemergence
[9] = Rate 0.1250 kg/ha, preemergence
[10] = Rate 0.2500 kg/ha, preemergence
[11] = 0.0313 kg/ha, preemergence weeds
[12] = 0.0625 kg/ha, preemergence weeds
[13] = 0.1250 kg/ha, preemergence weeds
[14] = 0.2500 kg/ha, preemergence weeds

CC(C#N)c1nsc2ccc(-n3c(=O)cc(C(F)(F)F)n(C)c3=O)cc12 (stereo not drawn) [Example 583, 1,2-Benzisothiazole-3-acetonitrile, 5-[3,6-dihydro-3-methyl-2,6-dioxo-4-(trifluoromethyl)-1(2H)-pyrimidinyl]-alpha-methyl-]
herbicidal effect rating, ECHORC [1, 7]: 3.0
herbicidal effect rating, ECHORC [1, 8]: 7.5
herbicidal effect rating, ECHORC [1, 9]: 9.0
herbicidal effect rating, ECHORC [1, 10]: 9.0
herbicidal effect rating, CYPIR [2, 7]: 9.0
herbicidal effect rating, CYPIR [2, 8]: 9.0
herbicidal effect rating, CYPIR [2, 9]: 9.0
herbicidal effect rating, CYPIR [2, 10]: 9.0
herbicidal effect rating, CYPSE [3, 7]: 8.5
herbicidal effect rating, CYPSE [3, 8]: 9.0
herbicidal effect rating, CYPSE [3, 9]: 9.0
herbicidal effect rating, CYPSE [3, 10]: 9.0
herbicidal effect rating, MOOVA [4, 7]: 6.0
herbicidal effect rating, MOOVA [4, 8]: 9.0
herbicidal effect rating, MOOVA [4, 9]: 9.0
herbicidal effect rating, MOOVA [4, 10]: 9.0
herbicidal effect rating, SAGPY [5, 7]: 9.0
herbicidal effect rating, SAGPY [5, 8]: 9.0
herbicidal effect rating, SAGPY [5, 9]: 9.0
herbicidal effect rating, SAGPY [5, 10]: 9.0
herbicidal effect rating ORYSAT ([6]; Rate 0.0320 kg/ha): 5.0
herbicidal effect rating ORYSAT ([6]; Rate 0.0620 kg/ha): 7.0
herbicidal effect rating ORYSAT ([6]; Rate 0.1250 kg/ha): 9.0
herbicidal effect rating ORYSAT ([6]; Rate 0.2500 kg/ha): 9.0

Cc1ccc(OCC(=O)OC(C)(C)C)c(-c2noc3ccc(-n4c(=O)cc(C(F)(F)F)n(C)c4=O)c(Cl)c23)c1 [Example 265, Acetic acid, {{2-{4-chloro-5-[3,6-dihydro-3-methyl-2,6-dioxo-4-(trifluoromethyl)-1(2H)-pyrimidinyl]-1,2-benzisoxazol-3-yl}-p-tolyl}oxy}-, tert-butyl ester]
ECHORC herbicidal effect rating [1, 7]: 0.0
ECHORC herbicidal effect rating [1, 8]: 0.0
ECHORC herbicidal effect rating [1, 9]: 0.0
ECHORC herbicidal effect rating [1, 10]: 0.0
CYPIR herbicidal effect rating [2, 7]: 0.0
CYPIR herbicidal effect rating [2, 8]: 0.0
CYPIR herbicidal effect rating [2, 9]: 0.0
CYPIR herbicidal effect rating [2, 10]: 3.0
CYPSE herbicidal effect rating [3, 7]: 0.0
CYPSE herbicidal effect rating [3, 8]: 0.0
CYPSE herbicidal effect rating [3, 9]: 0.0
CYPSE herbicidal effect rating [3, 10]: 0.0
MOOVA herbicidal effect rating [4, 7]: 9.0
MOOVA herbicidal effect rating [4, 8]: 9.0
MOOVA herbicidal effect rating [4, 9]: 9.0
MOOVA herbicidal effect rating [4, 10]: 9.0
SAGPY herbicidal effect rating [5, 7]: 0.0
SAGPY herbicidal effect rating [5, 8]: 0.0
SAGPY herbicidal effect rating [5, 9]: 0.0
SAGPY herbicidal effect rating [5, 10]: 0.0
ORYSAT herbicidal effect rating ([6]; Rate 0.0320 kg/ha): 0.0
ORYSAT herbicidal effect rating ([6]; Rate 0.0620 kg/ha): 0.0
ORYSAT herbicidal effect rating ([6]; Rate 0.1250 kg/ha): 0.0
ORYSAT herbicidal effect rating ([6]; Rate 0.2500 kg/ha): 0.0

COc1ccccc1Oc1noc2ccc(-n3c(=O)cc(C(F)(F)F)n(C)c3=O)cc12 [Example 43, 3-[3-(o-Methoxyphenoxy)-1,2-benzisoxazol-5-yl]-1-methyl-6-(trifluoromethyl)-2,4(1H,3H)-pyrimidinedione]
herbicidal effect rating, ECHORC ([1]; 0.0313 kg/ha, preemergence): 0.0
herbicidal effect rating, ECHORC ([1]; 0.0625 kg/ha, preemergence): 0.0
herbicidal effect rating, ECHORC ([1]; 0.1250 kg/ha, preemergence): 2.0
herbicidal effect rating, ECHORC ([1]; 0.2500 kg/ha, preemergence): 8.0
herbicidal effect rating, CYPIR ([2]; 0.0313 kg/ha, preemergence): 0.0
herbicidal effect rating, CYPIR ([2]; 0.0625 kg/ha, preemergence): 0.0
herbicidal effect rating, CYPIR ([2]; 0.1250 kg/ha, preemergence): 0.0
herbicidal effect rating, CYPIR ([2]; 0.2500 kg/ha, preemergence): 0.0
herbicidal effect rating, CYPSE ([3]; 0.0313 kg/ha, preemergence): 0.0
herbicidal effect rating, CYPSE ([3]; 0.0625 kg/ha, preemergence): 0.0
herbicidal effect rating, CYPSE ([3]; 0.1250 kg/ha, preemergence): 0.0
herbicidal effect rating, CYPSE ([3]; 0.2500 kg/ha, preemergence): 0.0
herbicidal effect rating, MOOVA ([4]; 0.0313 kg/ha, preemergence): 6.0
herbicidal effect rating, MOOVA ([4]; 0.0625 kg/ha, preemergence): 9.0
herbicidal effect rating, MOOVA ([4]; 0.1250 kg/ha, preemergence): 9.0
herbicidal effect rating, MOOVA ([4]; 0.2500 kg/ha, preemergence): 9.0
herbicidal effect rating, SAGPY ([5]; 0.0313 kg/ha, preemergence): 0.0
herbicidal effect rating, SAGPY ([5]; 0.0625 kg/ha, preemergence): 0.0
herbicidal effect rating, SAGPY ([5]; 0.1250 kg/ha, preemergence): 0.0
herbicidal effect rating, SAGPY ([5]; 0.2500 kg/ha, preemergence): 0.0
herbicidal effect rating, ORYSAT (rice tolerance) ([6]; 0.0313 kg/ha): 1.0
herbicidal effect rating, ORYSAT (rice tolerance) ([6]; 0.0625 kg/ha): 2.0
herbicidal effect rating, ORYSAT (rice tolerance) ([6]; 0.1250 kg/ha): 3.0
herbicidal effect rating, ORYSAT (rice tolerance) ([6]; 0.2500 kg/ha): 3.0

Cn1c(C(F)(F)F)cc(=O)n(-c2ccc3snc(NS(C)(=O)=O)c3c2)c1=O [Example 117, N-{5-[3,6-Dihydro-3-methyl-2,6-dioxo-4-(trifluoromethyl)-1(2H)-pyrimidinyl]-1,2-benzisothiazol-3-yl}methanesulfonamide]
herbicidal effect rating, ECHORC [1, 11]: 0.0
herbicidal effect rating, ECHORC [1, 12]: 0.0
herbicidal effect rating, ECHORC [1, 13]: 0.0
herbicidal effect rating, ECHORC [1, 14]: 0.0
herbicidal effect rating, CYPIR [2, 11]: 0.0
herbicidal effect rating, CYPIR [2, 12]: 0.0
herbicidal effect rating, CYPIR [2, 13]: 0.0
herbicidal effect rating, CYPIR [2, 14]: 0.0
herbicidal effect rating, CYPSE [3, 11]: 0.0
herbicidal effect rating, CYPSE [3, 12]: 0.0
herbicidal effect rating, CYPSE [3, 13]: 0.0
herbicidal effect rating, CYPSE [3, 14]: 0.0
herbicidal effect rating, MOOVA [4, 11]: 0.0
herbicidal effect rating, MOOVA [4, 12]: 0.0
herbicidal effect rating, MOOVA [4, 13]: 2.0
herbicidal effect rating, MOOVA [4, 14]: 4.0
herbicidal effect rating, SAGPY [5, 11]: 0.0
herbicidal effect rating, SAGPY [5, 12]: 0.0
herbicidal effect rating, SAGPY [5, 13]: 0.0
herbicidal effect rating, SAGPY [5, 14]: 0.0
herbicidal effect rating, ORYSAT (rice tolerance) ([6]; 0.0313 kg/ha): 0.0
herbicidal effect rating, ORYSAT (rice tolerance) ([6]; 0.0625 kg/ha): 0.0
herbicidal effect rating, ORYSAT (rice tolerance) ([6]; 0.1250 kg/ha): 0.0
herbicidal effect rating, ORYSAT (rice tolerance) ([6]; 0.2500 kg/ha): 0.0
